Experimental findings from patent US20200022995A1, “Novel Immunodulating Small Molecules” (AyuVis Research, Inc., priority 2018, published 2020) are described below.

The structures appear in SMILES notation.

Data set [1] deals with neonatal pups with BPD. The data set can be described thus: Hyperoxia mouse model of BPD (newborn pups). It counts as in vivo. An excerpt: Neonatal mice and humans undergo similar stages of lung development but differ with respect to the duration of each stage and its temporal relationship to gestational age. The lungs of the mouse born at term are in the saccular stage and are surfactant sufficient; this can be considered somewhat akin to a human preterm neonate in the same stage of lung development that has been exposed to a full complement of antenatal steroids (which is known to enhance surfactant production). In terms of mimicking the human condition, the most successful hyperoxia models are those that limit exposure to hyperoxia to the saccular stage of pulmonary development. The mouse BPD model involves exposing newborn mice (postnatal day 1 or PN1) to 100% oxygen till PN4 followed by recovery in room air (RA) for another 10 days.
After the recovery period, their lungs were harvested and processed for quantitative PCR, western blotting, histopathology and ELISA.
Each of the compounds 3, 8 or 32 encapsulated in PLGA nanoparticles referred as 3NP, 8NP and 32NP was instilled intranasally (IN) as nanosuspension to newborn pups on PN2 and PN4 at different doses (FIG. 28). After the recovery period, their lungs were harvested and processed for quantitative PCR, western blotting and histopathology and ELISA.
BPD is characterized by large simplified alveoli, inflammation, increased cell death, decreased cell proliferation, dysmorphic capillary configuration, and variable interstitial cellularity and/or fibroproliferation. […] This is determined by measuring the alveolar chord length, septal thickness and radial alveolar count (RAC). In BPD, the alveolar area increases which is characterized by increase in the diameter of the alveolar sacs, the septa become thickened (thus interfering in gaseous exchange) and the RAC, a parameter used to assess the complexity of terminal respiratory unit by pulmonologists, decreases as a result of arrested lung development.

Data set [2] has as its system HUVECs. The data set can be described thus: Cytotoxicity in HUVECs (MTT). Type of data set: cell-based, human. Particulars: 100 μM, 24 h. As to the method: Selected TLR2/4 antagonist compounds 2, 6, 7, 8, 14, 17 and 32 were evaluated for cytotoxicity in HUVECs at 100 μM concentration. The cells were treated with compounds and incubated for 24 h. Cell viability was assessed using MTT cell proliferation kit (Promega). All the compounds were not toxic to HUVECs (FIG. 15).

Data set [3] deals with T1, TLR6 (Homo sapiens, UniProt Q9Y2C9).
T1 construct: in combination with TLR6 ligand Pam2CSK4 in hPBMC after 24 h of treatment; endogenous in cells; host or cells: hPBMC
T1 sequence (Q9Y2C9 32-796): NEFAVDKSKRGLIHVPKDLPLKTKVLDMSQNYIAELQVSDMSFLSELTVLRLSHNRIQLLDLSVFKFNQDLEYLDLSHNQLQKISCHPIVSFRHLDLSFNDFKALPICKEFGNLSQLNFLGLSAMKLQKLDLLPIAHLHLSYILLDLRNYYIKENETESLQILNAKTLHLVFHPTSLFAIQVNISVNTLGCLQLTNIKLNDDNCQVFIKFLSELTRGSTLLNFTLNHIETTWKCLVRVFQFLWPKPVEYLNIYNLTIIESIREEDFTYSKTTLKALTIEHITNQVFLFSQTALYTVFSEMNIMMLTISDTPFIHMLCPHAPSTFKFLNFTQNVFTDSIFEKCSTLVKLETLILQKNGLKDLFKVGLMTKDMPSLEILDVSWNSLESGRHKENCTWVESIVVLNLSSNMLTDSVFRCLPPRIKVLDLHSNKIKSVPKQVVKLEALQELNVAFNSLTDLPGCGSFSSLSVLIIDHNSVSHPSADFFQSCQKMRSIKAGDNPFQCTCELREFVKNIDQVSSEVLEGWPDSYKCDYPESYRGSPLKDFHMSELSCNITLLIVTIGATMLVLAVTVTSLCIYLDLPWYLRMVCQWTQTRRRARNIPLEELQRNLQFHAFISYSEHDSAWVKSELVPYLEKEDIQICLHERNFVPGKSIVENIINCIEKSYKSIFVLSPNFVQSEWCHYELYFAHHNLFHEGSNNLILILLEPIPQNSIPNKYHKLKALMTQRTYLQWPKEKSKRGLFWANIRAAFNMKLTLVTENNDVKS
As to the kind of experiment: IL-6 ELISA in hPBMC with TLR6 ligand Pam2CSK4. Particulars: 24 h. Type of data set: cell-based. The method, then:
Compound 8 stimulates the TLR6 activities and upregulates the production of IL-6 cytokine in combination with TLR6 ligand Pam2CSK4 in hPBMC after 24 h of treatment as detected by ELISA (FIG. 9).

Data set [4] deals with T2, TLR1/2 (Homo sapiens, UniProt O60603).
T2 construct: downregulate the IL-6 protein level in hPBMC after 24 h; endogenous in cells; host or cells: hPBMC
As to the kind of experiment: IL-6 ELISA in hPBMC with TLR1/2 ligand Pam3CSK4. It counts as cell-based. The note with it: 0.1 μM to <1 μM, 24 h. The source says:
Compound 8 modulates the TLR1/2 activities in a concentration dependent manner.

Data set [5] deals with hyperoxia-induced lung injury in mice. As to the kind of experiment: Hyperoxia induced ALI model. The note with it: IP, 10 mg/kg. Type of data set: in vivo, C57BL/6 mice. The method, then:
(§1) Male C57BL/6 mice (Jackson Laboratories,) 12-15 weeks old, 25-28 gms, housed up to 5 per cage were used.
Hyperoxia induced ALI model: The ARDS model consists of exposing adult mice in 100% oxygen for 48 h followed by injecting with test compounds. Adult mice (N=5) were housed in plexi chamber with a constant and continuous supply of 100% oxygen for 48 h. […] The mice were sacrificed after 48 h to harvest lung tissues and collect (BAL) fluid.

Data set [6] deals with LPS-induced lung injury in mice. The data set can be described thus: LPS-induced ALI model. Type of data set: in vivo, C57BL/6 mice. The note with it: IP.
From the text: as §1
The lungs were sectioned for histopathological assessment after H/E staining while the BAL fluid was used to detect total cell counts (neutrophils and macrophages) and measure protein (that exudes by leakage).

Data set [7] concerns neonatal pups with BPD. The data set can be described thus: Hyperoxia mouse model of BPD (newborn pups). It counts as in vivo. The source holds these as a separate data set.
Data set [8] concerns HUVECs. The data set can be described thus: Anti-angiogenic activity, VEGF induced tube formation in HUVECs. Particulars: VEGF 100 ng/mL. Type of data set: cell-based, human. The method, then:
Selected TLR2/4 antagonist compounds 2, 6, 7, 8, 14, 17 and 32 were evaluated for anti-angiogenic activity using the Tube Formation kit (Cat #3470-096-K). VEGF (100 ng/mL) was used as positive control. These compounds have potential applications in diseases associated with pathological angiogenesis such as solid tumor, […], diabetic retinopathy as well as AMD.

The test system of data set [9] is hPBMC. As to the kind of experiment: Cytotoxicity in hPBMC (MTT). It counts as cell-based, human. The note with it: 0.1, 1.0, 10, 100 and 1000 μM, 24 h. The method, then: The cells were treated with compounds and incubated for 24 h. Cell viability was assessed using MTT cell proliferation kit (Promega). All the compounds were not toxic to hPMBC (FIG. 12).

T2 sequence (O60603 21-784): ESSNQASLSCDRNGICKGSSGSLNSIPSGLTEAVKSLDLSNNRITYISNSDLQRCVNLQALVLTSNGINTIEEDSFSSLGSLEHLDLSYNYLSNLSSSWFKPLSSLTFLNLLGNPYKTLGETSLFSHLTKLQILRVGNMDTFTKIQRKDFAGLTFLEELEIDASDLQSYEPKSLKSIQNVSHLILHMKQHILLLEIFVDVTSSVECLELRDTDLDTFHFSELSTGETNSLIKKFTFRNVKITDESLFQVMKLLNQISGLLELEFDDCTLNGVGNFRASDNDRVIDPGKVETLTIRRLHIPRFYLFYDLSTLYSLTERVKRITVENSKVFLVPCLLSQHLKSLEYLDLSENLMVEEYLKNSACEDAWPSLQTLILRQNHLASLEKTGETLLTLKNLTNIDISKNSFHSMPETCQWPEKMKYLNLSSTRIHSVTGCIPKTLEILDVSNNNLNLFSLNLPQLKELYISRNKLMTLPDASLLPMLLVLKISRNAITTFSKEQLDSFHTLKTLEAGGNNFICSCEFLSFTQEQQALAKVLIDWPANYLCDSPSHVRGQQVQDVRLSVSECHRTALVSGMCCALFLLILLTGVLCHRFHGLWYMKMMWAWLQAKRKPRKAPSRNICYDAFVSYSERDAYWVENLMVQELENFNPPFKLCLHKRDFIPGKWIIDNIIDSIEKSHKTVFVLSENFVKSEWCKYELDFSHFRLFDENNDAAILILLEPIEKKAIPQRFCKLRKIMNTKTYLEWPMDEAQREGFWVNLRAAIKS

On to `CC(=O)N[C@H]1[C@H](Oc2ccc([N+](=O)[O-])cc2)O[C@H](CO)[C@@H](O)[C@@H]1O` [Compound 8, p-Nitrophenyl 2-acetamido-2-deoxy-β-D-glucopyranoside], for which, in data set [1] (10 mg/kg, ELISA), the “anti-inflammatory cytokine IL-10” value is “increase”; the “inflammatory cytokines and chemokines (MIP-2, MCP-1, IL-17, IFN-Y, TNF-α, IL-1β, and IL-6)” value is “decreases”. For the same compound, the “lung injury in neonatal pups with BPD” value in [1] (mouse model of BPD) is on record as “prevent lung injury”. The “TLR4 inhibition in an in vivo model system” value in data set [1] (neonatal pups with BPD) is on record as “inhibit TLR4”. Further, the lung architecture result in [1] (saline IV and nanosuspension IN) is listed as “restored”. Also, the “cytotoxicity in HUVECs” value in data set [2] is on record as “not toxic”. Further, the “production of IL-6 cytokine” value in [3] is on record as “upregulates”. Besides, the IL-6 protein level entry in data set [4] is on record as “downregulate”. Moreover, the “protection against hyperoxia induced lung injury” value in data set [5] (100% oxygen 48 h) is on record as “significant protection”. Moreover, in data set [5] (mice), the hyperoxia-induced lung inflammation entry is “ameliorated”. The “protection against LPS induced lung injury” value in data set [6] (10 mg/kg at 4 h and 12 h post LPS) is listed as “significant protection”. Further, the LPS-induced lung inflammation result in [6] (10 mg/kg, mice) is “ameliorated”. For the same compound, the “hyperoxia induced BPD in mouse pups” value in data set [7] (IP and IV, saline solution, 5 mg/kg or 10 mg/kg on PN2 and PN4) was “prevent”. For the same compound, the “chord length, septal thickness and radial alveolar count of mouse lungs” value in data set [7] (IP injection) is recorded as “improvement”. In addition, the “inflammatory cytokines in lung tissue and serum” value in [7] (after injection) is “decreased”. For the same compound, the “VEGF induced tube formation” value in [8] is “significantly deceased”. Further, the “cytotoxicity in hPBMC” value in [9] was “not toxic”.
